The values below come from PubChem BioAssay (NCI).

Assay in all cases: NCI-60 cell line screen, 48 h
The subject of assay [1] is HS 578T breast.
Assay [2] deals with HOP-62 NSCLC.
The subject of assay [3] is T-47D breast.
The test system of assay [4] is SW-620 colon.
In assay [5] the test system is MOLT-4 leukemia.
Assay [6] deals with NCI-H522 lung.
Assay [7] has as its system OVCAR-8 ovarian.
Assay [8] concerns PC-3 prostate.
Assay [9] relates to HCT-15 colon.
The test system of assay [10] is LOX IMVI melanoma.
Assay [11] concerns MCF7 breast.
Assay [12] deals with SR leukemia.
Assay [13] has as its system M14 melanoma.
In assay [14] the test system is ACHN renal.
The subject of assay [15] is SF-539 CNS.

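1) Cells in 96-well plates. 2) Compound, 48 h, 5 concentrations. 3) Linear interpolation between surrounding doses. 4) Unreached endpoint = highest concentration. TGI denotes the concentration required for complete inhibition of growth.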

As to `CC(=O)c1ccc(Nc2c3c(nc4ccccc24)CCCC3)cc1`, the TGI in assay [1] was more than 88 µM; in assay [2], more than 47.3 µM; in assay [3], more than 52.2 µM; in [4], more than 78.8 µM; in assay [5] it was 73.8 µM; in [6] it was 16.6 µM. Also, the TGI was 70.9 µM in assay [7]; more than 100 µM in assay [8]; more than 100 µM in assay [9]; more than 41.4 µM in assay [10]; more than 100 µM in [11]; 74.2 µM in assay [12]. Further, the TGI in assay [13] is 41.7 µM; in assay [14], more than 100 µM; in assay [15], more than 100 µM.

On to `COC(=O)c1c(C)cccc1/C=C1\Cc2ccc(C)c(C)c2C1=O`, for which the TGI in assay [1], in assay [2], in assay [3], in [4], in [5] and in [6] was more than 100 µM in each case. Further, the TGI in assay [7], in assay [8], in assay [9], in assay [10], in assay [11] and in [12] was more than 100 µM in each case. The TGI in assay [13], in assay [14] and in assay [15] was more than 100 µM in each case.

Take `CCOc1cnc(C(O)(c2ccccc2)c2ccccc2)o1`: the TGI in assay [1], in [2], in assay [3], in assay [4], in assay [5] and in [6] was more than 100 µM throughout. In addition, the TGI in assay [7], in assay [8], in [9], in assay [10], in assay [11] and in assay [12] was more than 100 µM in each case. Moreover, the TGI in assay [13], in assay [14] and in assay [15] was more than 100 µM each time.

For the compound `O=c1[nH]c(N/N=C\C(O)C(O)C(O)C(O)CO)nc2ccccc12` (stereo not given), the TGI in assay [1], in [2], in [3], in assay [4], in [5] and in [7] was more than 100 µM throughout. Also, the TGI in assay [8], in assay [9], in assay [10], in assay [11], in assay [12] and in assay [13] was more than 100 µM in each case. For the same compound, the TGI in assay [14] and in assay [15] was more than 100 µM in each case.

On to `COC(=O)[C@H](Cc1ccccc1)NC(=O)c1ccc(CNC(=O)/C=C/c2csc(-c3ccccc3)n2)cc1`, for which the TGI in assay [1] was 58.1 µM; in assay [2], 52.5 µM; in assay [3], 7.12 µM; in [4], more than 100 µM; in [5] it was 6.68 µM; in assay [6], 13.7 µM. For the same compound, the TGI in [7] is more than 65.4 µM; in assay [8], more than 58.2 µM; in [9] it was more than 60.4 µM; in [10], more than 52.8 µM; in [11] it was 32 µM; in assay [12], more than 21.5 µM. Further, the TGI in [13] came out at 3.81 µM; in assay [14], 44 µM; in [15], 13 µM.

Turning to `N#Cc1ccccc1OCCOc1ccccc1C#N`, the TGI in assay [1], in assay [2], in assay [3], in [4], in assay [5] and in assay [6] was more than 100 µM each time. The TGI in [7], in assay [8], in assay [9], in [10], in assay [11] and in assay [12] was more than 100 µM in each case. In addition, the TGI in [13], in assay [14] and in assay [15] was more than 100 µM throughout.

In the case of `COc1ccc2nc3c(c(N)c2c1)C1CCC3C1(C)C` (stereo not given), the TGI in [1] was more than 100 µM; in assay [2], 47.9 µM; in assay [3], more than 100 µM; in [4] it was more than 100 µM; in assay [5], more than 100 µM; in assay [6], more than 100 µM. For the same compound, the TGI in assay [7], in assay [8], in [9], in assay [10], in [11] and in [12] was more than 100 µM in each case. The TGI was 33.6 µM in assay [13], more than 100 µM in assay [14] and more than 100 µM in [15].

Take `CC(SC(=S)N1CCOCC1)C(=O)Nc1nnc(-c2ccc(Cl)cc2)o1` (stereo not given): the TGI in assay [1], in assay [2], in assay [3], in [4], in [5] and in assay [7] was more than 100 µM each time. The TGI in [8] is more than 100 µM; in assay [9] it was more than 100 µM; in [10] it was more than 100 µM; in assay [11], more than 100 µM; in [12], 40.6 µM; in [13], more than 100 µM. Moreover, the TGI in assay [14] and in assay [15] was more than 100 µM in each case.

`COC(=O)[C@@H]1CO[C@H](C(C)(C)C)N1C(=O)N1C=CC(=O)C[C@H]1C`: the TGI in [1], in [2], in [3], in [4], in assay [6] and in [7] was more than 100 µM each time. Moreover, the TGI in assay [8], in assay [10], in assay [11], in [12], in [13] and in [14] was more than 100 µM in each case.
